{"source": "patent US11453640B2", "about": "“Small molecules for disrupting the super elongation complex and inhibiting transcription elongation for cancer therapy” (NORTHWESTERN UNIVERSITY, priority 2018, dated 2022)", "key": {"[1]": {"test_system": "ELL2", "test": "Western blotting of ELL2 protein levels in 293T cells", "type": "cell-based, human", "conditions": "20 μM, 6 hr", "description": "FIG. 10, related to FIG. 3. Disruption of SEC phenocopies slow Pol II mutants and reduces Pol II processivity. (A) Identification of the 1,057 genes with typical Pol II termination signals around the TES. Pol II signals from WT Pol II mutant expressing cells were K-means clustered into 5 groups with a window of 15 kb around the TES. The expressing genes from clusters with a typical Pol II termination signals were selected and plotted. (B) SEC inhibitor treatments of the WT Pol II mutant expressing cells lead to a Pol II phenotype similar to slower Pol II mutant expressing cells as viewed at the 3′-end of genes. (C-D) Time-dependent and dose-dependent shift of Pol II signals around the TES sites by KL-2 treatment (N=1,057). (E) Genome browser tracks of Serine 2 phosphorylated (Ser2P) Pol II at the SRSF1 gene in HEK293T cells treated with vehicle or SEC inhibitors. SEC inhibitor treatments result in increased Pol II occupancy at the promoter-proximal region and increased occupancy of Ser2P Pol II in the gene body. […] (H) SEC inhibition results in decreased protein levels of the SEC subunit ELL2. 293T cells were treated with 20 μM of the indicated inhibitors for 6 hr before harvesting cells for western blotting. (I-K) Depletion of ELL2 in HEK293T cells (I) results in apparent early termination of Pol II with reduced Pol II occupancy downstream of the PIM3 (J) and ACTB (K) annotated TES. […]"}, "[2]": {"test_system": "heat shock inducible genes in HCT-116 cells", "test": "Heat shock induction in HCT-116 cells (Pol II ChIP-seq)", "type": "cell-based, human", "conditions": "5 hr pretreatment, 42° C. 1 hr", "method": "FIG. 5. SEC inhibitors block transcription elongation in SEC-dependent rapid response models. (A-B) Genome browser tracks of Pol II ChIP-seq at the FOS, HSPD1 and HSPE1 genes after 1 hr heat shock of HCT-116 cells treated with vehicle (DMSO) or the indicated SEC inhibitors. HCT-116 cells were pretreated with inhibitors for 5 hr at 37° C. before exchanging medium with conditioned 42° C. medium. Dark and light colors indicate the 37 and 42° C. conditions, respectively. (C) Genome-wide identification of heat shock-induced genes with fold change of reads per million in gene bodies and pausing index. Red dots are the 136 heat shock-induced genes according to Pol II signals (fold change of reads per million in gene bodies >1.5 and pausing index decreased >1.5-fold in the DMSO-treated condition). […] Box plot analysis depicts the log2 fold changes of reads per million in gene bodies (E) (y axis) after heat shock with pretreatment of vehicle or SEC inhibitors. […]\nChromatin Immunoprecipitation Sequencing. […] ChIP-seq reads were aligned to the Drosophila genome (UCSC dm3) or human genome (UCSC hgl9). Alignments were processed with Bowtie version 1.1.2, allowing only uniquely mapping reads with up to two mismatches within the 50 bp read. The resulting reads were extended to 150 bp toward the interior of the sequenced fragment and normalized to total reads aligned (reads per million, r.p.m.). […]"}, "[3]": {"test_system": "MDA231-LM2 cells", "test": "Annexin V apoptosis in MDA231-LM2 cells", "type": "cell-based", "conditions": "24 hr", "method": "FIG. 14, related to FIG. 7. SEC disruptors delay tumor progression and improve survival of MDA231-LM2 tumor mice. (A) KL-1 and KL-2 inhibit the colony formation of MDA231-LM2 cells in vitro. 5×10^3 MDA231-LM2 cells were seeded in 6-well plates and treated with KL-1 or KL-2 at the indicated doses for 5 days. Crystal violet staining was performed to stain the colonies. (B) KL-1 and KL-2 induce apoptosis in MDA231-LM2 cells. Bar graph depiction of Annexin V positive MDA231-LM2 cells after 24 hr of KL-1 and KL-2 treatments at the indicated concentrations. Data are represented as Mean+/−SD. […] Each individual line indicates the weights of each mouse during toxicity test."}}, "data": [{"smiles": "COc1cccc(C(=O)CC(=O)C(=O)Nc2cc(Cl)ccc2C)c1", "note": "[KL-1, N-(5-chloro-2-methylphenyl)-4-oxo-4-(3-methoxyphenyl)-2-oxobutanamide]", "values": [{"measurement": "ELL2 protein levels", "setting": "[1]", "value": "led to reduced ELL2 protein levels"}, {"measurement": "induction of heat shock inducible genes", "setting": "[2]", "value": "block induction of known heat shock inducible genes"}, {"measurement": "apoptosis (Annexin V staining)", "setting": "[3]", "value": "increase apoptosis"}]}]}
